# Test results from US20230416227A1, “PLASMA KALLIKREIN INHIBITORS” (Merck Sharp & Dohme LLC, priority 2020, published 2023).
# Target: T1, Human plasma kallikrein (Homo sapiens, UniProt P03952)
# T1 construct: yields a heavy chain (371 amino acids) and a light chain (248 amino acids); purchased Enzyme Research Laboratories
# Experiment: Plasma Kallikrein Assay
# Type: biochemical
# Settings: purified Human plasma kallikrein 0.5 nM, substrate Acetyl-K-P-R-AFC, pH 7.4
# Method: The effectiveness of a compound of the present invention as an inhibitor of plasma kallikrein can be determined using a relevant purified serine protease, and an appropriate synthetic substrate. The rate of hydrolysis of the chromogenic or fluorogenic substrate by the relevant serine protease was measured both in the absence and presence of compounds of the present invention. Assays were conducted at rt or at 37° C. […] A decrease in the rate of fluorescence change in the presence of inhibitor is indicative of enzyme inhibition. Such methods are known to one skilled in the art. The results of this assay are expressed as the half-maximal inhibitory concentrations (IC50), or the inhibitory constant, Ki.
# Plasma kallikrein determinations were made in 50 mM HEPES buffer at pH 7.4 containing 150 mM NaCl, 5 mM CaCl2), and 0.1% PEG 8000 (polyethylene glycol; Fisher Scientific). […]
# Times required to achieve equilibration between enzyme and inhibitor were determined in control experiments. The reactions were performed under linear progress curve conditions and fluorescence increase measured at 405 Ex/510 Em nm. […] IC50 was determined by inflection point from a four parameter logistic curve fit. Ki was calculated using the Cheng Prusoff equation, Ki=IC50/(1+([S]/Km)).
# T1 sequence (P03952 391-638 limits assumed): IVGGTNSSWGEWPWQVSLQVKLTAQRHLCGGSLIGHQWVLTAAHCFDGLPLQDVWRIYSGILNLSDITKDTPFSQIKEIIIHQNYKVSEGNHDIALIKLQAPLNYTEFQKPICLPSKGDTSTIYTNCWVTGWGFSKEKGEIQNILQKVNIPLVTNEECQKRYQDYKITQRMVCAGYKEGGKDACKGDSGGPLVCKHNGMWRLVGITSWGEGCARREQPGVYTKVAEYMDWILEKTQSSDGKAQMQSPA
# T1 sequence (P03952 20-390 partner limits assumed): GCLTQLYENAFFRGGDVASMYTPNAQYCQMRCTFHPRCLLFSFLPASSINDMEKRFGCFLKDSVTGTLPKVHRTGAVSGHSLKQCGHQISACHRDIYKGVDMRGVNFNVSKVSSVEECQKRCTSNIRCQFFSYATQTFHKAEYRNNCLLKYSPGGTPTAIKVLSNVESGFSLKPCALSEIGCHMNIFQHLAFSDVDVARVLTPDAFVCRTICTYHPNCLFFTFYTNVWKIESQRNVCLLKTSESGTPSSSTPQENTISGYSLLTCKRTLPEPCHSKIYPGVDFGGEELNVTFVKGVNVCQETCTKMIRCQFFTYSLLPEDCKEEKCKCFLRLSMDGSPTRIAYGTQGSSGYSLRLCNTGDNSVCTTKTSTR
row,Compound,IC50
1,"CC(N)C1CCCN1c1ncc(Cn2cc(NC(=O)c3cncc(-c4c(C(F)F)ccc(Cl)c4F)n3)cn2)cn1 (single isomer, unassigned) [Example 160, N-(1-((2-(2-(1-Aminoethyl)pyrrolidin-1-yl)pyrimidin-5-yl)methyl)-1H-pyrazol-4-yl)-6-(3-chloro-6-(difluoromethyl)-2-fluorophenyl)pyrazine-2-carboxamide]",42.9 nM
2,"CC(c1cnc(N2CCC[C@@H]2C(N)=O)nc1)n1cc(NC(=O)c2cncc(-c3c(C(F)F)ccc(Cl)c3F)n2)cn1 (mixture of isomers) [Example 104, N-(1-((R and S)-1-(2-((R)-2-Carbamoylpyrrolidin-1-yl)pyrimidin-5-yl)ethyl)-1H-pyrazol-4-yl)-6-(3-chloro-6-(difluoromethyl)-2-fluorophenyl)pyrazine-2-carboxamide]",32.9 nM
3,"O=C(Nc1cnn(Cc2ccc(N3CCC4OCCC43)nc2)c1)c1cncc(-c2c(C(F)F)ccc(Cl)c2F)n1 (single isomer, unassigned) [Example 122, 6-(3-Chloro-6-(difluoromethyl)-2-fluorophenyl)-N-(1-((6-((3aR,6aR or 3aS,6aS)-hexahydro-4H-furo[3,2-b]pyrrol-4-yl)pyridin-3-yl)methyl)-1H-pyrazol-4-yl)pyrazine-2-carboxamide]",19.5 nM
4,"CC(c1cnc(N2CC[C@H]2[C@@H](C)N[C@@H]2CCC[C@H]2O)nc1)n1cc(NC(=O)c2cncc(-c3c(C(F)F)ccc(Cl)c3F)n2)cn1 (stereo partly drawn) [Example 193, 6-(3-Chloro-6-(difluoromethyl)-2-fluorophenyl)-N-(1-(1-(2-((S)-2-((R)-1-(((1R,2R)-2-hydroxycyclopentyl)amino)ethyl)azetidin-1-yl)pyrimidin-5-yl)ethyl)-1H-pyrazol-4-yl)pyrazine-2-carboxamide]",8.1 nM
5,"CC1C2CC2CN1c1ncc(C(CO)n2cc(NC(=O)c3cncc(-c4c(C(F)F)ccc(Cl)c4F)n3)cn2)cn1 (single isomer, unassigned) [Example 48, 6-(3-Chloro-6-(difluoromethyl)-2-fluorophenyl)-N-(1-((S or R)-2-hydroxy-1-(2-((1S,2R,5R or 1R, 2S, 5S)-2-methyl-3-azabicyclo[3.1.0]hexan-3-yl)pyrimidin-5-yl)ethyl)-1H-pyrazol-4-yl)pyrazine-2-carboxamide]",730 nM
6,"O=C(Nc1cnn(Cc2ccc(N3CC[C@@H]3CO)nc2)c1)c1cncc(-c2c(C(F)F)ccc(Cl)c2F)n1 [Example 68, (R)-6-(3-Chloro-6-(difluoromethyl)-2-fluorophenyl)-N-(1-((6-(2-(hydroxymethyl)azetidin-1-yl)pyridin-3-yl)methyl)-1H-pyrazol-4-yl)pyrazine-2-carboxamide]",26.3 nM
7,"N#Cc1ccc(Cl)c(F)c1-c1cncc(C(=O)Nc2cnn(Cc3cnc(N4CCC4)nc3)c2)n1 [Example 53, N-(1-((2-(Azetidin-1-yl)pyrimidin-5-yl)methyl)-1H-pyrazol-4-yl)-6-(3-chloro-6-cyano-2-fluorophenyl)pyrazine-2-carboxamide]",30.7 nM
8,"O=C(Nc1cnn(Cc2ccc(N3CCNC4(CC4)C3)nc2)c1)c1cncc(-c2c(C(F)F)ccc(Cl)c2F)n1 [Example 128, N-(1-((6-(4,7-Diazaspiro[2.5]octan-7-yl)pyridin-3-yl)methyl)-1H-pyrazol-4-yl)-6-(3-chloro-6-(difluoromethyl)-2-fluorophenyl)pyrazine-2-carboxamide]",32.2 nM
9,"O=C(Nc1cnn(C2CCc3nc(N4CCC4)ccc32)c1)c1cncc(-c2c(C(F)F)ccc(Cl)c2F)n1 (single isomer, unassigned) [Example 35, (S or R)-N-(1-(2-(azetidin-1-yl)-6,7-dihydro-5H-cyclopenta[b]pyridin-5-yl)-1H-pyrazol-4-yl)-6-(3-chloro-6-(difluoromethyl)-2-fluorophenyl)pyrazine-2-carboxamide]",33.2 nM

# Further compounds by falling IC50, results first:
row,IC50,Compound
1,3770 nM,"CC1C2CC2CN1c1ncc(C(CO)n2cc(NC(=O)c3cncc(-c4c(C(F)F)ccc(Cl)c4F)n3)cn2)cn1 (single isomer, unassigned) [Example 51, 6-(3-Chloro-6-(difluoromethyl)-2-fluorophenyl)-N-(1-((R or S)-2-hydroxy-1-(2-((1R,2S,5S or 1S,2R, 5R)-2-methyl-3-azabicyclo[3.1.0]hexan-3-yl)pyrimidin-5-yl)ethyl)-1H-pyrazol-4-yl)pyrazine-2-carboxamide]"
2,49 nM,"O=C(Nc1cnn(Cc2ccc(N3CCC(CO)C3)nc2)c1)c1cncc(-c2c(C(F)F)ccc(Cl)c2F)n1 (stereo not shown) [Example 132, 6-(3-Chloro-6-(difluoromethyl)-2-fluorophenyl)-N-(1-((6-(3-(hydroxymethyl)pyrrolidin-1-yl)pyridin-3-yl)methyl)-1H-pyrazol-4-yl)pyrazine-2-carboxamide]"
3,28.2 nM,"CN(C)CCN(C)c1ncc(Cn2cc(NC(=O)c3cncc(-c4c(C(F)F)ccc(Cl)c4F)n3)cn2)cn1 [Example 98, 6-(3-Chloro-6-(difluoromethyl)-2-fluorophenyl)-N-(1-((2-((2-(dimethylamino)ethyl)(methyl)amino)pyrimidin-5-yl)methyl)-1H-pyrazol-4-yl)pyrazine-2-carboxamide]"
4,21.6 nM,"CC(c1cnc(N2CC[C@H]2[C@@H](C)N[C@H](C)C(C)(C)O)nc1)n1cc(NC(=O)c2cncc(-c3c(C(F)F)ccc(Cl)c3F)n2)cn1 (stereo partly drawn) [Example 194, 6-(3-Chloro-6-(difluoromethyl)-2-fluorophenyl)-N-(1-(1-(2-((S)-2-((R)-1-(((R)-3-hydroxy-3-methylbutan-2-yl)amino)ethyl)azetidin-1-yl)pyrimidin-5-yl)ethyl)-1H-pyrazol-4-yl)pyrazine-2-carboxamide]"
5,17.6 nM,"CC1C2CC2CN1c1ncc(C(CO)n2cc(NC(=O)c3cncc(-c4c(C(F)F)ccc(Cl)c4F)n3)cn2)cn1 (single isomer, unassigned) [Example 49, 6-(3-Chloro-6-(difluoromethyl)-2-fluorophenyl)-N-(1-((R or S)-2-hydroxy-1-(2-((1S,2R,5R or 1R,2S, 5S)-2-methyl-3-azabicyclo[3.1.0]hexan-3-yl)pyrimidin-5-yl)ethyl)-1H-pyrazol-4-yl)pyrazine-2-carboxamide]"
6,17.1 nM,"N#Cc1ccc(Cl)c(F)c1-c1cncc(C(=O)Nc2cnn(Cc3ccc(N4CCC4)nc3)c2)n1 [Example 52, N-(1-((6-(Azetidin-1-yl)pyridin-3-yl)methyl)-1H-pyrazol-4-yl)-6-(3-chloro-6-cyano-2-fluorophenvl)pyrazine-2-carboxamide]"
7,4.9 nM,"CC(c1cnc(N2CC[C@H]2CN2CC(F)C2)nc1)n1cc(NC(=O)c2cncc(-c3c(C(F)F)ccc(Cl)c3F)n2)cn1 (stereo partly drawn) [Example 171, 6-(3-Chloro-6-(difluoromethyl)-2-fluorophenyl)-N-(1-(1-(2-((S)-2-((3-fluoroazetidin-1-yl)methyl)azetidin-1-yl)pyrimidin-5-yl)ethyl)-1H-pyrazol-4-yl)pyrazine-2-carboxamide]"
8,4.2 nM,"CC(c1cnc(N2CC[C@H]2CN(C)[C@H]2CCC[C@@H]2O)nc1)n1cc(NC(=O)c2cncc(-c3c(C(F)F)ccc(Cl)c3F)n2)cn1 (stereo partly drawn) [Example 183, 6-(3-Chloro-6-(difluoromethyl)-2-fluorophenyl)-N-(1-(1-(2-((S)-2-((((1S,2S)-2-hydroxycyclopentyl)(methyl)amino)methyl)azetidin-1-yl)pyrimidin-5-yl)ethyl)-1H-pyrazol-4-yl)pyrazine-2-carboxamide]"
9,3.6 nM,"NC(=O)[C@@H]1CCCN1c1ccc(Cn2cc(NC(=O)c3cncc(-c4c(C(F)F)ccc(Cl)c4F)n3)cn2)cn1 [Example 116, (S)-N-(1-((6-(2-Carbamoylpyrrolidin-1-yl)pyridin-3-yl)methyl)-1H-pyrazol-4-yl)-6-(3-chloro-6-(difluoromethyl)-2-fluorophenyl)pyrazine-2-carboxamide]"
10,1.6 nM,"CC(c1cnc(N2CC[C@H]2CN2CC(O)C2)nc1)n1cc(NC(=O)c2cncc(-c3c(C(F)F)ccc(Cl)c3F)n2)cn1 (stereo partly drawn) [Example 170, 6-(3-Chloro-6-(difluoromethyl)-2-fluorophenyl)-N-(1-(1-(2-((S)-2-((3-hydroxyazetidin-1-yl)methyl)azetidin-1-yl)pyrimidin-5-yl)ethyl)-1H-pyrazol-4-yl)pyrazine-2-carboxamide]"
11,1.4 nM,"CC(c1cnc(N2CC[C@H]2CN2CCCC(C)(O)C2)nc1)n1cc(NC(=O)c2cncc(-c3c(C(F)F)ccc(Cl)c3F)n2)cn1 (stereo partly drawn) [Example 176, 6-(3-Chloro-6-(difluoromethyl)-2-fluorophenyl)-N-(1-(1-(2-((2S)-2-((3-hydroxy-3-methylpiperidin-1-yl)methyl)azetidin-1-yl)pyrimidin-5-yl)ethyl)-1H-pyrazol-4-yl)pyrazine-2-carboxamide]"
12,1.2 nM,"CC(c1cnc(N2CC[C@H]2CN2CCC[C@@H](O)C2)nc1)n1cc(NC(=O)c2cncc(-c3c(C(F)F)ccc(Cl)c3F)n2)cn1 (stereo partly drawn) [Example 177, 6-(3-Chloro-6-(difluoromethyl)-2-fluorophenyl)-N-(1-(1-(2-((S)-2-(((R)-3-hydroxypiperidin-1-yl)methyl)azetidin-1-yl)pyrimidin-5-yl)ethyl)-1H-pyrazol-4-yl)pyrazine-2-carboxamide]"
13,1.1 nM,"O=C(Nc1cnn(Cc2cnc(N3CCCC3CN3CCOCC3)nc2)c1)c1cncc(-c2c(C(F)F)ccc(Cl)c2F)n1 (stereo not shown) [Example 153, 6-(3-Chloro-6-(difluoromethyl)-2-fluorophenyl)-N-(1-((2-(2-(morpholinomethyl)pyrrolidin-1-yl)pyrimidin-5-yl)methyl)-1H-pyrazol-4-yl)pyrazine-2-carboxamide]"
